Results reported in article PMC8909036 (Cells, 2022).

Tests used:
NbPYL1b = target: T1, NbPYL1b (Nicotiana benthamiana, UniProt Z9Z2X8O5T5); test: ligand-dependent inhibition of PP2C HAB1 by receptor, pNPP, […] nm; format: biochemical; settings: 0.5 μM ΔN-HAB1, 1 or 2 μM NbPYL1b, 25 mM pNPP, 2 mM MnCl2, 25 mM Tris HCl pH 7.5; agonist, IC50 read on HAB1 activity
T1 construct: full ORF amplified from Nb genomic DNA (CDS 678 nt, 225 residues by count) in pETM11, His-tagged, E. coli BL21(DE3), Ni-NTA; dimer in gel filtration (apo); assayed with N-terminally truncated HAB1 (ΔN-HAB1); with Protein phosphatase 2C 16
T1 sequence (Z9Z2X8O5T5 1-225): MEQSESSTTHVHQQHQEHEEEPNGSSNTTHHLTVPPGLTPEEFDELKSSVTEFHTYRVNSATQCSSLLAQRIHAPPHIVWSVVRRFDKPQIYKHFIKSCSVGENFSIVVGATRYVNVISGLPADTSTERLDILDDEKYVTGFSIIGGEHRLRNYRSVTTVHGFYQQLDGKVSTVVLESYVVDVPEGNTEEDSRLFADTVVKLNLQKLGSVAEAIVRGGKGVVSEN
T1 sequence (Q9CAJ0 172-511 partner limits assumed): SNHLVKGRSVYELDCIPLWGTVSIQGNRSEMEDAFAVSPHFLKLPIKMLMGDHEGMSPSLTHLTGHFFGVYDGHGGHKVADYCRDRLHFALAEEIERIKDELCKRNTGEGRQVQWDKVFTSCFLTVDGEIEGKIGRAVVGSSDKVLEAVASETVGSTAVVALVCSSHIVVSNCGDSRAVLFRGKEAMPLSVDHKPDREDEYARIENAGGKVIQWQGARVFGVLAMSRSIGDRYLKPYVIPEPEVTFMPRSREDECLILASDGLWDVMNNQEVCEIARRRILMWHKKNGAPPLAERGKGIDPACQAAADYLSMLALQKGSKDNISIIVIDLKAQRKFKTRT

ΔN-HAB1 = target: T2, ΔN-HAB1 (Arabidopsis thaliana, UniProt Q9CAJ0); test: phosphatase turnover, […] nm, […] min; format: biochemical; settings: 25 mM pNPP, 2 mM MnCl2, 25 mM Tris HCl pH 7.5
T2 sequence (Q9CAJ0 172-511 limits assumed): T1 sequence (Q9CAJ0 172-511 partner limits assumed)

| IC50 (NbPYL1b) [nM] | Compound | phosphatase turnover, 405 nm, 30 min (ΔN-HAB1) |
| --- | --- | --- |
| 126 | Cc1ccc(CS(=O)(=O)Nc2ccc(C#N)c(C3CC3)c2)cc1 [CB] | – |
| – | O=[N+]([O-])c1ccc(OP(=O)(O)O)cc1 [pNPP] | Phosphatase activity was measured using p-nitrophenyl phosphate (pNPP) as a substrate |
